From US5436271A, “N^6 -(hydrazinoiminomethyl)lysine and method of inhibiting nitric oxide formation in body” (Cornell Research Foundation, Inc., priority 1993, dated 1995)
Where two headings read alike, the source gives them in different places. Blank lines part the entries; values can stand above or below the compound they belong to.

Experiments:
[1] = biological target: T1, cytokine-induced nitric oxide synthase isozyme (Mus musculus, UniProt P29477); assay: Nitrite formation by cytokine-induced cultured mouse brain endothelial cells (Example V); type: cell-based
T1 construct: endogenous in cells; host or cells: cultured mouse brain endothelial cells induced with gamma-interferon and tumor necrosis factor
Protocol: In vitro studies with cultured endothelial cells were carried out to test the efficacy of N^6 -(hydrazinoiminomethyl)-L-lysine as an inhibitor of the cytokine-induced nitric oxide synthase isozyme relative to established inhibitors. Cultured mouse brain endothelial cells were grown for 18 hrs. in the presence of 1000 units/ml of gamma-interferon and 5000 units/ml of tumor necrosis factor, conditions shown previously to cause enzyme induction (R. Kilbourn and P. Belloni (1990) in "Nitric Oxide from L-Arginine: A Bioregulatory System" (S. Moncada and E. A. Higgs, eds.) pp. 61-67, Elsevier Science Publishers, Amsterdam). For control cells the culture media contained 50% Dulbecco's Modified Eagle's Medium, 45% Ham's F12 Medium with 5% fetal calf serum. […] Nitric oxide formation was monitored by following the increase in the concentration of nitrite in the culture medium. Nitric oxide spontaneously oxidizes to nitrite under the incubator conditions.

nitric oxide synthase = assay: Efficacy on arterial blood pressure in endotoxin-treated anesthetized dog (Example IV); type: in vivo
Protocol: To test the efficacy of N^6 -(hydrazinoiminomethyl)-L-lysine, a 28 kg fasted dog was anesthetized with pentobarbital (25 mg/kg, i.v.), orotracheally intubated to allow ventilation with a Harvard pump, and instrumented to allow arterial blood pressure to be monitored via a central catheter. After a constant normal blood pressure had been observed for about 90 min., a solution containing 2 mg/kg body weight of endotoxin (E. coli lipopolysaccharide obtained from Sigma Chemical Co.) was given as an intravenous bolus injection. […] When the mean arterial blood pressure had declined to about 70 mm Hg, a bolus intravenous injection of 20 mg/kg of N^6 -(hydrazinoiminomethyl)-L-lysine monohydrochloride (denote HAA) was given. […] At that time, the dog was given a bolus intravenous injection of 400 mg/kg of L-arginine (denoted L-ARG), the substrate of nitric oxide synthase and a specific antagonist of nitric oxide synthase inhibitors competing for the L-arginine binding site.

[2] = biological target: T2, constitutive isoform of nitric oxide synthase (Rattus norvegicus, UniProt Q62600); assay: Inhibition of acetylcholine relaxation of phenylephrine-contracted rat aortic rings (Example VI)
T2 construct: from tissue; host or cells: isolated rat aortic rings (2-3 mm)
T2 sequence (Q62600 2-1202 limits assumed): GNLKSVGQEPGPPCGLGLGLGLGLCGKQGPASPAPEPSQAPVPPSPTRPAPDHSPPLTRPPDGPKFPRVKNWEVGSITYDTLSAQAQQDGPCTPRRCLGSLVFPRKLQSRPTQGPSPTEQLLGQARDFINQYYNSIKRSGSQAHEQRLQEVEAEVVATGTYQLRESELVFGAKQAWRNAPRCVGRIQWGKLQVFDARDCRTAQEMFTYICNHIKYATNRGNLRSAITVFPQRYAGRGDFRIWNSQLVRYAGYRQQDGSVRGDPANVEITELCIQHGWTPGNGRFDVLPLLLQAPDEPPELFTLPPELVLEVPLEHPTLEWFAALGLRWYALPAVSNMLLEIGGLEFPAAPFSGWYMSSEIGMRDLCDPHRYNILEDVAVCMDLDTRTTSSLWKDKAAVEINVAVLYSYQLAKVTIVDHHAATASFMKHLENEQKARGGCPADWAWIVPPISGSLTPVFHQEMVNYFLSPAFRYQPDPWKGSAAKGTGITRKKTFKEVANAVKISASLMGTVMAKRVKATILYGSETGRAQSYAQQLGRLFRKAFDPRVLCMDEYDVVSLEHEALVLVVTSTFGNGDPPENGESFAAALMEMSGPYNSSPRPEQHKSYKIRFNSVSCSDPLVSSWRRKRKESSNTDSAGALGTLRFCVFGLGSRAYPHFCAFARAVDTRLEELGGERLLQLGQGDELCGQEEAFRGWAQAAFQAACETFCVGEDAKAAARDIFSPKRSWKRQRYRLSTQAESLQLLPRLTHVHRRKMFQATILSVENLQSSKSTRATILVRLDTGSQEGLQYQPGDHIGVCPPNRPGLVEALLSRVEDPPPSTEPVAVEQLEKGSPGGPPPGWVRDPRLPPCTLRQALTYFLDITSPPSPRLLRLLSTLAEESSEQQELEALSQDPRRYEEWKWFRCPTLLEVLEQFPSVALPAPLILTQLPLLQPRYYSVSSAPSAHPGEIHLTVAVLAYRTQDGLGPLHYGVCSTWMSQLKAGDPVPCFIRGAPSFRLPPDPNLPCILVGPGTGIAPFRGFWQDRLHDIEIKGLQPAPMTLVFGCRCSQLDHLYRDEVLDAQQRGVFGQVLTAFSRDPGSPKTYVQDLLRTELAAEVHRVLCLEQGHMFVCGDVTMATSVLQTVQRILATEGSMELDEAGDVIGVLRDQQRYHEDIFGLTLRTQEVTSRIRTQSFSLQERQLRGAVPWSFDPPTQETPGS
Protocol: In vitro studies with rat aortic rings were carried out to test the effect of N^6 -(hydrazinoiminomethyl)-L-lysine relative to other known inhibitors of the constitutive isoform of nitric oxide synthase. Aortic rings (2-3 mm) were isolated, suspended under a resting tension of 2.00 gm in 5 ml glass chambers containing Krebs-Henseleit solution gassed with 95% 02 and 5% CO2 at 37° C. as described previously for vascular rings from guinea pigs (O.A. Fasehun et al, (1990) J. Pharmacol. Exp. Ther. 255, 1348-1353). The aortic rings were then contracted by addition of 0.03 μM phenylephrine to the bathing solution, and the tension of the rings was measured. Acetylcholine, an agonist that stimulates the formation of nitric oxide by constitutive nitric oxide synthase in the vascular endothelium, was next added to a final concentration of 1 μM. The nitric oxide formed in response to acetylcholine causes the vascular smooth muscle of the aortic rings to relax, and the decrease in tension is measured. Inhibitors of nitric oxide synthase decrease the extent to which acetylcholine causes relaxation of the phenylephrine-contracted aortic rings. In the study, rings were contracted with phenylephrine, relaxed with acetylcholine, and then increasing doses of inhibitor were added to the bathing solution to overcome the effect of acetylcholine. The dose of inhibitor is denoted on the X-axis.

[3] = design: species or system Swiss-Webster mice; conditions: mouse, in vivo, sc
Protocol: To test the long-term toxicity of N^6 -(hydrazinoiminomethyl)-L-lysine,0.209 ml of a 200 mM solution of the hydrochloride salt of the drug (48 mg/ml) was loaded into each of three Alzet Osmotic Pumps (Model 2001), and the pumps were implanted subcutaneously on the backs of three individual Swiss-Webster mice (wts. 30.7, 34.8 and 33.4 gms) under pentobarbital anesthesia. Each pump delivered the solution of drug at a rate of […] for 1 week.

[4] = Toxicity in awake dog, i.v. bolus plus infusion (Example II); type: in vivo
Protocol: To test the toxicity of N^6 -(hydrazinoiminomethyl)-L-lysine, a 30 kg awake dog was administered the hydrochloride salt of the drug at a dose of 20 mg/kg body weight as a single intravenous (i.v.) bolus. […] After 30 min., an additional dose of 20 mg/kg was given and an i.v. infusion of drug at a rate of 10 mg/kg body weight per hour was started. The infusion was continued for 5 hours. […] The spasms ended within 24 hours (48 hours after the experiment started), and the dog appeared normal and well in all respects.

[5] = test system: inducible isoform of nitric oxide synthase; conditions: cited from earlier work
[6] = rat aortic rings, 0.03 μM phenylephrine, 1 μM acetylcholine, read-out: concentration needed to overcome 50% of the relaxation caused by acetylcholine (ED50)
[7] = ratio of ED 50% approx., inducible isoform

Compound: NN=C(N)NCCCCC(N)C(=O)O (racemic) [N^6 -(hydrazinoiminomethyl)-D,L-lysine, N^6 -(Hydrazinoiminomethyl)-D,L-lysine]
inhibition of nitrite formation by induced endothelial cells compared with L-form ([1]; as Example V, twice the concentration of the L-form): substantially equal results
blood pressure increase compared with L-form (nitric oxide synthase; as Example IV, twice the dosage of the L-form): substantially equal results

Compound: NN=C(N)NCCCC[C@H](N)C(=O)O [HAA, N^6 -(hydrazinoiminomethyl)-L-lysine]
IC50 [2, 6]: ~10.3 µM
IC50 ([1]; mouse brain endothelial cells, 18 hrs with gamma-interferon 1000 units/ml and tumor necrosis factor 5000 units/ml, read-out: dose required for approximately 50% inhibition (ED 50% approx.) of nitrite formation): ~15.6 µM
potency relative to NAA [1, 7]: approximately 4 times
potency relative to NMMA [1, 7]: approximately 8 times
increase of blood pressure (nitric oxide synthase; endotoxin 2 mg/kg dog, mean arterial pressure about 70 mm Hg, 20 mg/kg i.v. bolus, within a few minutes): about 30 mm Hg
time blood pressure remained in physiologically acceptable range (nitric oxide synthase; endotoxin dog, after 20 mg/kg i.v. bolus): about 45 min
survival [3]: > 4 weeks
late signs of toxicity ([4]; dog, in vivo): periodic isolated myoclonic muscle spasms
time until muscle spasms ended ([4]; dog, in vivo): ≤ 24 h
signs of toxicity ([4]; dog, in vivo, iv, 20 mg/kg): no signs of toxicity

Compound: N/N=C(\N)NCCC[C@H](N)C(=O)O [NAA, N^G -amino-L-arginine, reference compound]
IC50 [2]: ~4.2 µM
IC50 [1]: ~62.5 µM
toxicity at the same dose under similar circumstances ([4]; awake dog, same dose as N6-(hydrazinoiminomethyl)-L-lysine): major seizures

IC50 [2, 6]: ~1.5 µM
Compound: N=C(NCCC[C@H](N)C(=O)O)N[N+](=O)[O-] [NNA, N^G -nitro-L-arginine]
rank as inhibitor of the inducible isoform among NNA, NAA, NMMA, HAA [5]: least effective inhibitor of the inducible isoform

Compound: N=C(N)NCCC[C@H](N)C(=O)O [L-ARG, L-arginine, reference compound]
blood pressure after reversal by substrate (nitric oxide synthase; endotoxin dog treated with HAA, then 400 mg/kg i.v. bolus): dropped precipitously to a level characteristic of septic (endotoxic) shock

IC50 [2, 6]: ~10.2 µM
Compound: CNC(=N)NCCC[C@H](N)C(=O)O [NMMA, N^G -methyl-L-arginine]
